According to publication PMC9964390, “Design, Synthesis and Phenotypic Profiling of Simplified Gedatolisib Analogues” (Pharmaceuticals, 2023):
≈ marks a conversion by molar mass, not a printed value. Read-outs that look alike come from different tables or passages of the source.

Tests used:
CCRF-CEM cell line = test: Muse Cell Cycle Kit; type: cell-based, human; conditions: 48 h
Procedure: The Guava Muse Luminex® Cell Cycle Kit (catalog n^o MCH100106, Luminex) contains the DNA marker propidium iodide (PI) and RNAse A to avoid nonspecific labelling.
After 48 h of incubation in an incubator at 37 °C with 5% CO2, 1 mL of the MOLT-4 cell solution and 500 µL of the CCRF-CEM cell solution, contained in the wells, were transferred to Eppendorf tubes and centrifuged at 300× g for 5 min. The volumes used ensured that the cell density remained within the recommended range (1 × 10^6 to 4 × 10^6 cells/mL) at the end of the 48 h incubation period.
The supernatant was discarded, and the pellet formed was resuspended in 1 mL of saline PBS, homogenised, and centrifuged at 300× g for 5 min. The formed pellet was resuspended in residual PBS by homogenization. To fix cellular events, 1 mL of ice-cold 70% alcohol was added dropwise into the tubes and vortexed at medium speed. The samples were incubated, before staining, for at least 3 h at −20 °C.
At the end of the incubation time at −20 °C, the samples were centrifuged at 300× g for 5 min, and then the supernatant was discarded and resuspended in 250 µL of PBS. The samples were again centrifuged at 300× g for 5 min and the supernatant discarded, which constituted the washing step. The pellet formed was resuspended in 200 µL of the Guava Muse Luminex® Cell Cycle, and the tubes were incubated for 30 min at room temperature, away from light.
After incubation, the samples were read in Guava Muse Luminex®, and the data with the histograms generated, which contain information on the percentage of the different phases of the cell cycle, were analysed in the statistical program Prism6. This methodology was performed in duplicate of three independent experiments.

CCRF-CEM = test: MTT cell viability assay; type: cell-based, human; conditions: Homo sapiens, 72 h MTT; for CC50: 95% confidence interval in brackets; for Emax: read-out: Emax (maximum effect at maximum concentration used)
Procedure: (§1) For the evaluation of cellular cytotoxicity in cancer cell lines, the compounds were tested at concentrations ranging from 0.00003 μM to 150 μM. Immortalized cancer cells were selected: PC-3 (PTEN-mutated prostate adenocarcinoma), MCF-7 (PI3KCA-mutated breast carcinoma), K562 (P53-mutated chronic myeloid leukemia), CCRF-CEM (acute lymphoblastic leukemia with mutation in PTEN) and MOLT-4 (acute lymphoblastic leukemia with mutation in PI3KR1/PTEN). Peripheral blood mononuclear cells (PBMCs) were used to determine the cytotoxic selectivity index (SI). All immortalized cells were cultured in RPMI 1640 medium with 10% (v/v) FBS, streptomycin + penicillin, at 37 °C in a humidified incubator containing 5% CO2.
(§2) Cell viability was assessed by the MTT assay. The lines selected for this study were plated according to their respective densities, which ranged from 3 × 10^4 to 4 × 10^4 cells per well. Subsequently, they were treated with test compounds at different concentrations (0.00003 μM to 150 μM), gedatolisib and GSK-1059615.
(§3) After incubation, the plates are centrifuged at 440× g for 10 min. Then, 110 μL of the supernatant was withdrawn and each well received 10μL of the MTT solution. The plate was again incubated in an oven at 37 °C and 5% CO2 for 3 to 4 h. At the end of the incubation time, 100 μL of SDS-HCL detergent was added to solubilize the formazan crystals. The plate was shaken on an automatic overnight shaker and then read at a wavelength of 595 nm on the Molecular Devices Spectramax M5 plate reader.

MOLT-4 = test: MTT cell viability assay; type: cell-based, human; conditions: Homo sapiens, MOLT-4, 72 h MTT; for CC50: 95% confidence interval in brackets; for Emax: read-out: Emax (maximum effect at maximum concentration used)
Procedure: as §1, §2, §3

MCF7 = test: MTT cell viability assay; type: cell-based; conditions: Homo sapiens, MCF7, 72 h MTT; for CC50: 95% confidence interval in brackets; for Emax: read-out: Emax (maximum effect at maximum concentration used)
Procedure: as §1, §2, §3

K562 = test: MTT cell viability assay; type: cell-based; conditions: Homo sapiens, K562, 72 h MTT; for CC50: 95% confidence interval in brackets; for Emax: read-out: Emax (maximum effect at maximum concentration used)
Procedure: as §1, §2, §3

PC-3 = test: MTT cell viability assay; type: cell-based; conditions: Homo sapiens, PC-3, 72 h MTT; for CC50: 95% confidence interval in brackets; for Emax: read-out: Emax (maximum effect at maximum concentration used)
Procedure: as §1, §2, §3

[1] = pH-dependent aqueous solubility (UV spectrophotometry); type: physicochemical; conditions: aqueous buffer, thermodynamic from solid, 37 °C
Procedure: A stock solution of the target compound was prepared by dissolving 1 mg in methanol, and the wavelength of greatest absorption of each compound was obtained by scanning between wavelengths from 200 nm to 500 nm. Six dilutions were prepared from the stock solution and the absorbance reading in the UV spectrophotometer (SpectraMax M5, Molecular Devices, USA). The calibration curve with linear regression was created with the values obtained, and the solubility test was measured by correlating the concentration with the absorbance obtained by ultraviolet. Each compound was added in excess at phosphate buffer solution pH 5.8 and 7.4 to obtain a supersaturated solution that was kept under stirring for 4 h at 37 °C and then was filtered through a 0.45 µm filter for reading at the corresponding wavelengths. The solubility was determined through the equation of the straight line obtained by the linear regression of the calibration curve of the compounds [24, 25].

[2] = test system: PC-3, MCF7, K562, CCRF-CEM and MOLT-4; test: MTT single-concentration cytotoxicity screening; type: cell-based, human; conditions: for cytotoxic effect on leukemia cell lines at single concentration: single concentration 30 μM, reduction in cell viability ≥ 50% selected for CC50; for solubility in the culture medium: during screening at 30 μM; for cytotoxic activity at screening concentration: single concentration 1 μM
Procedure: In a first approach, the assay was validated with two standard drugs: gedatolisib and GSK-1059615.
After understanding the response profile of the selected cell lines to the treatment with gedatolisib and GSK-1059615, we investigated the cytotoxic activity of compounds 5a-f at a single concentration (30 μM). […] During the experiments, compounds 5a (LASSBio-2250), 5b (LASSBio-2251) and 9 (CAS-942789959) were insoluble and precipitated on the culture medium. Therefore, they were evaluated also at the screening concentration of 1 μM.
as §2, §3

[3] = phosphate buffer pH 5.8 (duodenum), read-out: Solubility pH 5.8
[4] = phosphate buffer pH 7.4 (plasma), read-out: Solubility pH 7.4

SMILES | solubility at 4 h [1, 3] [µM] | solubility at 4 h [1, 4] [µM] | melting point [°C] | CC50 (CCRF-CEM) [µM] | Emax (CCRF-CEM) [%] | CC50 (MOLT-4) [µM] | Emax (MOLT-4) [%] | CC50 (MCF7) [µM] | Emax (MCF7) [%] | CC50 (K562) [µM] | Emax (K562) [%] | CC50 (PC-3) [µM] | Emax (PC-3) [%] | solubility in the culture medium [2] | cytotoxic activity at screening concentration [2] | further results
CC[C@]1(O)C[C@H]2CN(CCc3c([nH]c4ccccc34)[C@@](C(=O)OC)(c3cc4c(cc3OC)N(C=O)[C@H]3[C@@](O)(C(=O)OC)[C@H](OC(C)=O)[C@]5(CC)C=CCN6CC[C@]43[C@@H]65)C2)C1 [Vincristine, vincristine] |  |  |  |  |  |  |  |  |  |  |  |  |  |  |  | action on the cell cycle (CCRF-CEM cell line; 5 µM): increased arrest in the G2/M phase
O=C1NC(=O)/C(=C/c2ccc3nccc(-c4ccncc4)c3c2)S1 [GSK-1059615, reference compound] |  |  |  | 0.43 | 93 | 0.63 | 92 | 0.55 | 80 | 1.82 | 84 | 6.78 | 67 |  |  | 
c1ccc(N2CCN(c3nc(N4CCOCC4)nc(N4CCOCC4)n3)CC2)cc1 [compound 9, reference compound] | 3.92 (≈ 1.61 µg/mL) | 6.03 (≈ 2.48 µg/mL) |  |  |  |  |  |  |  |  |  |  |  | insoluble | inactive | 
COc1cccc2c1C(=O)c1c(O)c3c(c(O)c1C2=O)C[C@@](O)(C(=O)CO)C[C@@H]3O[C@H]1C[C@H](N)[C@H](O)[C@H](C)O1 [doxorubicin] |  |  |  |  |  |  |  |  |  |  |  |  |  |  |  | action on the cell cycle (CCRF-CEM cell line; 0.5 µM): nonspecific action on the cell cycle

Second part, led by results:

solubility at 4 h [1, 3] [µM] | solubility at 4 h [1, 4] [µM] | melting point [°C] | SMILES | CC50 (CCRF-CEM) [µM] | Emax (CCRF-CEM) [%] | CC50 (MOLT-4) [µM] | Emax (MOLT-4) [%] | CC50 (MCF7) [µM] | Emax (MCF7) [%] | CC50 (K562) [µM] | Emax (K562) [%] | CC50 (PC-3) [µM] | Emax (PC-3) [%] | solubility in the culture medium [2] | cytotoxic activity at screening concentration [2] | further results
43.4 (≈ 17.8 µg/mL) | 59.1 (≈ 24.3 µg/mL) |  | c1ccc(N2CCN(c3nc(N4CCNCC4)nc(N4CCOCC4)n3)CC2)cc1 [5c] | 37.3 | 94 | 31.8 | 93 | > 100 | 57 | 25.6 | 85 | 92.3 | 58 |  |  | cytotoxic effect on leukemia cell lines at single concentration [2]: cytotoxic effect
30.7 (≈ 13 µg/mL) | 50.9 (≈ 21.6 µg/mL) | 135 | CN1CCN(c2nc(N3CCOCC3)nc(N3CCN(c4ccccc4)CC3)n2)CC1 [5d, 4-(4-(4-Methylpiperazin-1-yl)-6-(4-phenylpiperazin-1-yl)-1,3,5-triazin-2-yl)morpholine] | 66.5 | 95 | 64.1 | 91 | > 100 | 77 | 50.2 | 80 | 91.3 | 72 |  |  | cytotoxic effect on leukemia cell lines at single concentration [2]: cytotoxic effect
31.2 (≈ 14.2 µg/mL) | 49.1 (≈ 22.3 µg/mL) | 92 | OCCN1CCN(c2nc(N3CCOCC3)nc(N3CCN(c4ccccc4)CC3)n2)CC1 [5e, 2-(4-(4-Morpholino-6-(4-phenylpiperazin-1-yl)-1,3,5-triazin-2-yl)piperazin-1-yl)ethan-1-ol] |  |  |  |  |  |  |  |  |  |  |  |  | 
2.84 (≈ 1.16 µg/mL) | 0.51 (≈ 0.209 µg/mL) |  | c1ccc(N2CCN(c3nc(N4CCCCC4)nc(N4CCOCC4)n3)CC2)cc1 [5b, 4-(4-(4-Phenylpiperazin-1-yl)-6-(piperidin-1-yl)-1,3,5-triazin-2-yl)morpholine] |  |  |  |  |  |  |  |  |  |  | insoluble | inactive | 
0.52 (≈ 0.222 µg/mL) | 2.88 (≈ 1.23 µg/mL) | 170 | c1ccc(N2CCN(c3nc(N4CCOCC4)nc(N4CCSCC4)n3)CC2)cc1 [5a, 4-(4-(4-Phenylpiperazin-1-yl)-6-thiomorpholino-1,3,5-triazin-2-yl)morpholine] |  |  |  |  |  |  |  |  |  |  | insoluble | inactive | 
